Here are results for 3 compounds from patent US11116731B2, “Hydrogen sulfide and/or nitrite in the treatment and prevention of atrial fibrillation” (Board of Supervisors of Louisiana State University and …, priority 2017, dated 2021).

This test concerns CSE knockout mice. In words: Inducible persistent AF (AF lasting more than 90 seconds after induction) in CSE knockout mice. It counts as in vivo. As to conditions: for risk of inducible persistent AF: 200 ug/kg retro-orbitally (i.e. I.V.) for three days. An excerpt:
Homocysteine induced reactive oxygen species reduces the ability of eNOS to properly function in generating nitric oxide (NO).
FIGS. 11 to 12B show mouse Mouse Electrophysiology and AF induction in mice and persistent AF and short run or non-persistent AF.

`C=CCSSSCC=C` [DATS, diallyl trisulfide]: the “risk of inducible persistent AF” value is “reduced to near wild type levels” (CSE knock out male mice) and “no noticeable risk reduction” (female CSE knock out mice).
Take `O=NO` [sodium nitrite]: the “persistent AF (FIGS. 26A, 26B, 34A to 35B)” value (female CSE KO mice) was “dramatically reduces”. Moreover, under “female CSE KO mice, nitrite treated vs PBS”, the “AF (electro cardio rhythms, FIGS. 25A and 25B)” value is recorded as “reduced”. Under “female CSE knockout mice, 165 ug/kg intraperitoneal for 3 days”, the “incidence of inducible persistent AF” value was “decrease”.
With `[N]=O` [NO, nitric oxide], the “persistent AF (FIGS. 26A, 26B, 34A to 35B)” value (female CSE KO mice) is listed as “Reduced”.
